Assay results as given in patent US20050256003A1, “Novel herbicides” (priority 2002, published 2005).

Tested on: selected test plants
Experiment: Post-emergence action in a different test arrangement (Table B3)
Type: in vivo
Set-up: key to Post-emergence action (different test arrangement), Nasturtium / Post-emergence action (different test arrangement), Stellaria / Post-emergence action (different test arrangement), Solanum: 10=total damage; 0=no action; Ratings of from 10 to 7 (especially from 10 to 8) indicate good to very good herbicidal action
Details: 250 g a.i./ha

Row | Compound | Post-emergence action (different test arrangement), Amaranthus | Post-emergence action (different test arrangement), Nasturtium | Post-emergence action (different test arrangement), Solanum | Post-emergence action (different test arrangement), Stellaria
1 | O=C1CCCC(O)=C1C(=O)c1ccc(C(F)(F)F)nc1CN1CCC1=O [Compound A1.221] | 9 | 10 | 9 | 9
2 | CN1CCN(Cc2nc(C(F)(F)F)ccc2C(=O)c2cnn(C)c2O)C1=O [Compound B1.211] | 9 | 10 | 9 | 8
3 | Cc1nc(C)n(Cc2nc(C(F)(F)F)ccc2C(=O)C2=C(O)CCCC2=O)c(=O)c1Cl [Compound A1.209] | 7 | 9 | 9 | 7
4 | COc1nn(Cc2nc(C(F)(F)F)ccc2C(=O)C2=C(O)CCCC2=O)c(=O)n1C [Compound A1.025] | 9 | 9 | 9 | 9
5 | O=C1CCCC(O)=C1C(=O)c1ccc(C(F)(F)F)nc1COCCN1CCCC1=O [Compound A1.220] | 9 | 10 | 9 | 10
6 | Cn1ncc(C(=O)c2ccc(C(F)(F)F)nc2CN2CCCC2=O)c1O [Compound B1.223] | 8 | 10 | 9 | 10
7 | O=C1CCCC(O)=C1C(=O)c1ccc(C(F)(F)F)nc1CN1CN(c2ccc(Cl)cc2)CC1=O [Compound A1.237] | 9 | 9 | 10 | 7
8 | Cn1c(=O)n(Cc2nc(C(F)(F)F)ccc2C(=O)C2=C(O)CCCC2=O)c(=O)n1C [Compound A1.211] | 9 | 10 | 9 | 7
